Measured values reported in patent US4292317A, “1,4-Dihydro-quinoline-3-carboxylic acid derivatives, process for their preparation and compositions containing them” (Laboratorie Roger Bellon, priority 1977, dated 1981).
Converted amounts (≈) assume the structure as drawn.

Tests used:
[1] = test system: Pseudomonas aeruginosa No. 12; assay: Systemic infection in mice; format: in vivo; conditions: NO.12, po, 168 h
Method: (§1) The activity of the compounds according to the invention against systemic infections in mice, caused by Staphylococcus 50,774, Streptococcus pyogenes A 65, Pseudomonas aeruginosa No. 12 and Escherichia coli P 5101, has been studied.
(§2) The infections were set up by intraperitoneal injection of a suspension of the bacterial culture corresponding to the germ studied. The products were administered orally at the time of injection, and 6 hours later. […] Aureus and for 7 days for the other germs.
(§3) Oxolinic acid was used as the reference substance.

Staph. aureus 50,774 [2] = assay: Systemic infection in mice; format: in vivo; conditions: Staphylococcus aureus, po, 336 h
Method: as §1, §2, §3

Strept. pyogenes A. 65 [3] = assay: Systemic infection in mice; format: in vivo; conditions: Streptococcus pyogenes, A.65, po, 168 h
Method: as §1, §2, §3

Escherichia coli P 5101 [4] = assay: Systemic infection in mice; format: in vivo; conditions: P5101, po, 168 h
Method: as §1, §2, §3

Salm. typhi 0901 = assay: microbe, parasite or virus in culture; format: cell-based; conditions: Salmonella enterica, 18 h; Table III; Salm. typhi 0901
Method: (§4) After sterilisation at 120° C., the pH was 6.8.
(§5) The minimum inhibitory concentrations (M.I.C.) were determined by dilution of the test compounds in this mixture, the concentration ranging from 0.05 to 100 μg/cm^3 in a geometric progression with a factor of 2.
(§6) The inoculation of the dishes was carried out by means of a multiple inoculator with 10^-3 dilutions of 18 hour old broth cultures.
(§7) The dishes were placed in an oven at 37° C. and the readings were taken afer an incubation time of 18 hours. The M.I.C. was taken as the lowest concentration which inhibited a culture.

in vivo = conditions: mouse, mice
[5] = test system: Pseudomonas aeruginosa No. 12; assay: M.I.C. for germ used in experimental infection; format: cell-based; conditions: NO.12, 18 h
Method: as §4, §5, §6, §7

Staph. aureus 50,774 [6] = assay: M.I.C. for germ used in experimental infection; format: cell-based; conditions: Staphylococcus aureus, 18 h
Method: as §4, §5, §6, §7

Strept. pyogenes A. 65 [7] = assay: M.I.C. for germ used in experimental infection; format: cell-based; conditions: Streptococcus pyogenes, A.65, 18 h
Method: as §4, §5, §6, §7

Escherichia coli P 5101 [8] = assay: M.I.C. for germ used in experimental infection; format: cell-based; conditions: P5101, 18 h
Method: as §4, §5, §6, §7

Staph. 9.144 = assay: M.I.C. in vitro, nutrient agar dilution; format: cell-based; conditions: 18 h
Method: as §4, §5, §6, §7

Pr. mirabilis Nig = assay: M.I.C. in vitro, nutrient agar dilution; format: cell-based; conditions: Proteus mirabilis, 18 h
Method: as §4, §5, §6, §7

Arizona 6.211 = assay: M.I.C. in vitro, nutrient agar dilution; format: cell-based; conditions: 18 h
Method: as §4, §5, §6, §7

S. oranienburg 1066 = assay: M.I.C. in vitro, nutrient agar dilution; format: cell-based; conditions: Salmonella enterica, 1066, 18 h
Method: as §4, §5, §6, §7

B. subtilis = assay: M.I.C. in vitro, nutrient agar dilution; format: cell-based; conditions: Bacillus subtilis, 18 h
Method: as §4, §5, §6, §7

Strepto D.M. 19 = assay: M.I.C. in vitro, nutrient agar dilution; format: cell-based; conditions: 18 h
Method: as §4, §5, §6, §7

Pr. vulgaris 12-53 = assay: M.I.C. in vitro, nutrient agar dilution; format: cell-based; conditions: Proteus vulgaris, 1253, 18 h
Method: as §4, §5, §6, §7

Klebs. pneum. 10.031 = assay: M.I.C. in vitro, nutrient agar dilution; format: cell-based; conditions: 18 h
Method: as §4, §5, §6, §7

S. enteritidis Danysz = assay: M.I.C. in vitro, nutrient agar dilution; format: cell-based; conditions: Salmonella enterica, ENTERITIDIS, 18 h
Method: as §4, §5, §6, §7

Ps. aeruginosa A.22 = assay: M.I.C. in vitro, nutrient agar dilution; format: cell-based; conditions: Pseudomonas aeruginosa, A.22, 18 h
Method: as §4, §5, §6, §7

Esch. coli 95 I.S.M. = assay: M.I.C. in vitro, nutrient agar dilution; format: cell-based; conditions: Escherichia coli, 95I.S.M., 18 h
Method: as §4, §5, §6, §7

Sh. sonnei I.P.S. = assay: M.I.C. in vitro, nutrient agar dilution; format: cell-based; conditions: Shigella sonnei, 18 h; Table III; Sh. sonnei I.P.S.; read-out: M.I.C.
Method: as §4, §5, §6, §7

Pr. morganii A.236 = assay: M.I.C. in vitro, nutrient agar dilution; format: cell-based; conditions: Morganella morganii, A.236, 18 h
Method: as §4, §5, §6, §7

Staph. 209 P = assay: M.I.C. in vitro, nutrient agar dilution; format: cell-based; conditions: 18 h
Method: as §4, §5, §6, §7

Providentia 0223 = assay: M.I.C. in vitro, nutrient agar dilution; format: cell-based; conditions: 18 h
Method: as §4, §5, §6, §7

Serratia = assay: M.I.C. in vitro, nutrient agar dilution; format: cell-based; conditions: 18 h
Method: as §4, §5, §6, §7

Esch. coli 111 B4 = assay: M.I.C. in vitro, nutrient agar dilution; format: cell-based; conditions: Escherichia coli, 18 h; Table III; Esch. coli 111 B4
Method: as §4, §5, §6, §7

Esch. coli 54.127 O.M.S. = assay: M.I.C. in vitro, nutrient agar dilution; format: cell-based; conditions: Escherichia coli, 54.127O.M.S., 18 h
Method: as §4, §5, §6, §7

Bord. bronchis. 4.617 = assay: M.I.C. in vitro, nutrient agar dilution; format: cell-based; conditions: 18 h
Method: as §4, §5, §6, §7

Ps. aeruginosa 72.345 = assay: M.I.C. in vitro, nutrient agar dilution; format: cell-based; conditions: Pseudomonas aeruginosa, 72.345, 18 h
Method: as §4, §5, §6, §7

For `CCn1cc(C(=O)O)c(=O)c2cc3c(cc21)OCO3` [Oxolinic acid, oxolinic acid, reference compound], which ED50 [1] is on record?
Its ED50 is 70.1 mg/kg.

What about the ED90 [1] of the same molecule?
The ED90 was 142 mg/kg.

And the ED50 (Staph. aureus 50,774 [2])?
Its ED50 is 53.2 mg/kg.

And the ED90 (Staph. aureus 50,774 [2])?
The ED90 was 111 mg/kg.

And the ED50 (Strept. pyogenes A. 65 [3])?
The ED50 was greater than 100 mg/kg.

And the ED90 (Strept. pyogenes A. 65 [3])?
Its ED90 is greater than 100 mg/kg.

What about the ED50 (Escherichia coli P 5101 [4]) of the same molecule?
The ED50 was 17 mg/kg.

And the ED90 (Escherichia coli P 5101 [4])?
Its ED90 is 45.1 mg/kg.

And the MIC (Salm. typhi 0901)?
Its MIC is 0.4 µg/mL (≈ 1.53 µM).

And the LD50 (in vivo; iv)?
Its LD50 is 177 mg/kg.

And the LD50 (in vivo; po)?
The LD50 was greater than 2000 mg/kg.

And the MIC [5]?
The MIC was 12.5 µg/mL (≈ 47.9 µM).

What about the MIC (Staph. aureus 50,774 [6]) of the same molecule?
Its MIC is 1.56 µg/mL (≈ 5.97 µM).

And the MIC (Strept. pyogenes A. 65 [7])?
Its MIC is 100 µg/mL (≈ 383 µM).

What about the MIC (Escherichia coli P 5101 [8]) of the same molecule?
The MIC was 0.2 µg/mL (≈ 0.766 µM).

And the MIC (Staph. 9.144)?
The MIC was 0.8 µg/mL (≈ 3.06 µM).

What about the MIC (Pr. mirabilis Nig) of the same molecule?
The MIC was 0.4 µg/mL (≈ 1.53 µM).

What about the MIC (Arizona 6.211) of the same molecule?
The MIC was 0.4 µg/mL (≈ 1.53 µM).

And the MIC (S. oranienburg 1066)?
The MIC was 25 µg/mL (≈ 95.7 µM).

What about the MIC (B. subtilis) of the same molecule?
Its MIC is 0.1 µg/mL (≈ 0.383 µM).

And the MIC (Strepto D.M. 19)?
Its MIC is 25 µg/mL (≈ 95.7 µM).

What about the MIC (Pr. vulgaris 12-53) of the same molecule?
The MIC was 0.05 µg/mL (≈ 0.191 µM).

What about the MIC (Klebs. pneum. 10.031) of the same molecule?
The MIC was 0.1 µg/mL (≈ 0.383 µM).

And the MIC (S. enteritidis Danysz)?
The MIC was 0.8 µg/mL (≈ 3.06 µM).

What about the MIC (Ps. aeruginosa A.22) of the same molecule?
Its MIC is 12.5 µg/mL (≈ 47.9 µM).

What about the MIC (Esch. coli 95 I.S.M.) of the same molecule?
Its MIC is 0.1 µg/mL (≈ 0.383 µM).

What about the MIC (Sh. sonnei I.P.S.) of the same molecule?
The MIC was 0.2 µg/mL (≈ 0.766 µM).

And the MIC (Pr. morganii A.236)?
The MIC was 0.1 µg/mL (≈ 0.383 µM).

What about the MIC (Staph. 209 P) of the same molecule?
Its MIC is 0.8 µg/mL (≈ 3.06 µM).

What about the MIC (Providentia 0223) of the same molecule?
Its MIC is 25 µg/mL (≈ 95.7 µM).

What about the MIC (Serratia) of the same molecule?
Its MIC is 0.8 µg/mL (≈ 3.06 µM).

And the MIC (Esch. coli 111 B4)?
The MIC was 0.4 µg/mL (≈ 1.53 µM).

What about the MIC (Esch. coli 54.127 O.M.S.) of the same molecule?
The MIC was 0.4 µg/mL (≈ 1.53 µM).

What about the MIC (Bord. bronchis. 4.617) of the same molecule?
Its MIC is 3.1 µg/mL (≈ 11.9 µM).

And the MIC (Ps. aeruginosa 72.345)?
The MIC was 6.2 µg/mL (≈ 23.7 µM).
